How the values were obtained:
[1] = molecular target: T1, 5-hydroxytryptamine receptor 1A (Homo sapiens, UniProt P08908); experiment: Affinity for 5-hydroxytryptamine 1A receptor subtype
T1 sequence (P08908 whole entry): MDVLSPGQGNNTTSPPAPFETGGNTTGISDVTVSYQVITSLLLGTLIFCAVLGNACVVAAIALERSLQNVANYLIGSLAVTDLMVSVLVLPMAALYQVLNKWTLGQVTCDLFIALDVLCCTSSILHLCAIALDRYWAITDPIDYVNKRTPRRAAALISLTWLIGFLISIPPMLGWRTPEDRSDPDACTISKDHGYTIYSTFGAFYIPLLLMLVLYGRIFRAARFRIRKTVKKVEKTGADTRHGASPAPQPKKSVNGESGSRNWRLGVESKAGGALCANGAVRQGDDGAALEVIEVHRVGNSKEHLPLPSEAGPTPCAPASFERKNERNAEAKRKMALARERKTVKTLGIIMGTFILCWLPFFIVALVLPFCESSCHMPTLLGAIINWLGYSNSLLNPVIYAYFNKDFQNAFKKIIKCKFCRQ

[2] = molecular target: T2, 5-hydroxytryptamine receptor 1B (Homo sapiens, UniProt P28222); experiment: Affinity for 5-hydroxytryptamine 1B receptor subtype
[3] = molecular target: 5-hydroxytryptamine receptor 1D (Homo sapiens, UniProt P28221); experiment: Affinity for 5-hydroxytryptamine 1D receptor subtype
[4] = molecular target: T2, 5-hydroxytryptamine receptor 1B; experiment: The compound was evaluated for antagonist potency at human cloned 5-hydroxytryptamine 1B receptor
[5] = molecular target: T2, 5-hydroxytryptamine receptor 1B; experiment: The compound was evaluated for intrinsic activity against human cloned 5-hydroxytryptamine 1B receptor
[6] = molecular target: T2, 5-hydroxytryptamine receptor 1B; experiment: The compound was evaluated for intrinsic activity against human cloned 5-hydroxytryptamine 1B receptor; silent antagonist; assay type: functional
[7] = molecular target: T2, 5-hydroxytryptamine receptor 1B; experiment: The compound was evaluated for intrinsic activity against human cloned 5-hydroxytryptamine 1B receptor; Slient antagonist; assay type: functional; settings: filed as antagonist

T2 sequence (P28222 whole entry): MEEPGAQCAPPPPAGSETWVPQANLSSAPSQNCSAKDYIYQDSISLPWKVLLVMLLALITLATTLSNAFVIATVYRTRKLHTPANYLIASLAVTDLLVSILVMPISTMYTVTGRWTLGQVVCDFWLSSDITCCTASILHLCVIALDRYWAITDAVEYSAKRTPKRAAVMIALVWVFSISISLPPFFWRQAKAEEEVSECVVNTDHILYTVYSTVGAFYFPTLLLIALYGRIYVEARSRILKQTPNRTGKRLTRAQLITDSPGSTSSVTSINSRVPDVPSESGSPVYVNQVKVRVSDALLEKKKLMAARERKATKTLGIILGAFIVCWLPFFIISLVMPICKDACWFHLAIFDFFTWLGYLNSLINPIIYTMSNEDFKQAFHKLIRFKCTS
5-hydroxytryptamine receptor 1D, sequence (P28221 whole entry): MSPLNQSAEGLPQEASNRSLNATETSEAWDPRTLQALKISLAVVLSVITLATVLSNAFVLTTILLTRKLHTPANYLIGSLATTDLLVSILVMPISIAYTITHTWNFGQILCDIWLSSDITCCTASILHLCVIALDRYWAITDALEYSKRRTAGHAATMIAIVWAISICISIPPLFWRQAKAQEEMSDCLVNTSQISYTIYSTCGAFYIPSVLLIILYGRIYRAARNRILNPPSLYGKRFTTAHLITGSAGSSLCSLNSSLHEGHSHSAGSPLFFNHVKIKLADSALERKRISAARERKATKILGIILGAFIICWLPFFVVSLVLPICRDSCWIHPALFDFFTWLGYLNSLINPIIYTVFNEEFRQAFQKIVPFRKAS

Ki [1] [nM] | Ki [2] [nM] | Ki [3] [nM] | KB [4] [nM] | Kb [5] [nM] | Kb [6] [nM] | Structure (SMILES) | Intrinsic activity [7]
393 | 1.3 | 37 | 10 |  |  | COc1ccc(NC(=O)N2CCN(c3c(C)cccc3C)CC2)cc1N1CCN(C)CC1 | 
 |  | 90 |  | 16 |  | COc1ccc(NC(=O)N2CCN(c3ccccc3OC)CC2)cc1N1CCN(C)CC1 | 
571 | 1.8 | 88 | 1.9 |  |  | COc1ccc(NC(=O)N2CCN(c3ccc(C)cc3C)CC2)cc1N1CCN(C)CC1 | 
257 | 0.5 | 26 |  | 39 |  | COc1ccc(NC(=O)N2CCN(c3cccc4c3CCCC4)CC2)cc1N1CCN(C)CC1 | 
450 | 18 | 340 |  | 27 |  | COc1ccc(NC(=O)N2CCN(c3ccccc3)CC2)cc1N1CCN(C)CC1 | 
 | 40 | 420 |  |  | 195 | COc1ccc(NCC(=O)N2CCN(c3ccccc3C)CC2)cc1N1CCN(C)CC1 | 
79 | 8 | 70 |  |  |  | COc1cccc(N2CCN(C(=O)Nc3ccc(OC)c(N4CCN(C)CC4)c3)CC2)c1 | 
72 | 0.14 |  |  |  |  | COc1ccc(NC(=O)c2ccc(-c3ccc(-c4noc(C)n4)cc3C)cc2)cc1N1CCN(C)CC1 [GR-127935] | 
 |  |  |  | 12 |  | COc1ccc(N2CCN(C(=O)Nc3ccc(OC)c(N4CCN(C)CC4)c3)CC2)cc1 | 
390 |  |  |  |  | 12 | COc1ccc(NC(=O)N2CCN(c3ccccc3C)CC2)cc1N1CCN(C)CC1 | 

Structure (SMILES) | Ki [1] [nM] | Ki [2] [nM] | Ki [3] [nM] | KB [4] [nM] | Kb [5] [nM] | Kb [6] [nM] | Intrinsic activity [7]
Cc1ccccc1N1CCN(C(=O)COc2ccc(Cl)c(N3CCN(C)CC3)c2)CC1 | > 1000 | 11 | 240 |  |  | 38 | 
Cc1ccccc1N1CCN(C(=O)Oc2ccc(Cl)c(N3CCN(C)CC3)c2)CC1 | > 1000 | 150 | 3.6 |  |  |  | Antagonist
Cc1nc(-c2ccc(-c3ccc(C(=O)N4CCc5cc6c(cc54)C4(CCN(C)CC4)CO6)cc3)c(C)c2)no1 [SB-224289] | > 1000 |  |  |  |  |  | 
